Drawing on patent US6100281A, “Sulphonyloxadiazolones” (Bayer Aktiengesellschaft, priority 1997, dated 2000), this text covers chromatographic logP and pest or weed control for 57 molecules.

Tested on in one data set: not listed separately
Kind of data set: logP by HPLC (EEC Directive 79/831 Annex V. A8, gradient method). The data set is classed as physicochemical. The note with it: acetonitrile/0.1% aqueous phosphoric acid. Here is the method:
In Table 1, Me represents methyl. The logP values were determined in accordance with EEC Directive 79/831 Annex V. A8 by HPLC (gradient method, acetonitrile/0.1% aqueous phosphoric acid).
On to `COc1ccc(Oc2noc(=O)n2S(=O)(=O)c2ccc(C)cc2)cc1` [Example 3], for which the chromatographic logP (commonly a lipophilicity value derived from retention on a column) came out at 3.34. With `Cc1ccc(S(=O)(=O)n2c(Oc3cc(C)ccc3C)noc2=O)cc1` [Example 4], the chromatographic logP was 3.93. Still for that read-out and setting: with `Cc1ccc(S(=O)(=O)n2c(Oc3ccc(F)cc3)noc2=O)cc1` [Example 6] the figure was 3.39; with `Cc1ccc(C)c(Oc2noc(=O)n2S(C)(=O)=O)c1` [Example 8], 2.7.

For `Cc1ccc(S(=O)(=O)n2c(Oc3ccc(C)cc3C)noc2=O)cc1` [Example 9], the chromatographic logP turned out to be 3.89.

With `Cc1ccc(Oc2noc(=O)n2S(C)(=O)=O)c(C)c1` [Example 10], the chromatographic logP is 2.73.

Consider `Cc1ccc(Oc2noc(=O)n2S(=O)(=O)N(C)C)c(C)c1` [Example 12], for which the chromatographic logP is 3.13.

With `COc1ccc(Oc2noc(=O)n2S(=O)(=O)N(C)C)cc1` [Example 13], the chromatographic logP turned out to be 2.5. Same read-out and setting: with `CCS(=O)(=O)n1c(Oc2ccc(C)cc2C)noc1=O` [Example 14] the figure was 2.95.

With `CN(C)S(=O)(=O)n1c(Oc2ccc(Cl)cc2)noc1=O` [Example 15], the chromatographic logP came out at 2.94.

In turn, `Cc1ccc(Oc2noc(=O)n2S(=O)(=O)N(C)C)cc1C` [Example 16] gave a chromatographic logP of 3.15. The same measure, in the same setting: then `CN(C)S(=O)(=O)n1c(Oc2ccccc2)noc1=O` [Example 18], with 2.48; and `CN(C)S(=O)(=O)n1c(Oc2ccc(F)cc2)noc1=O` [Example 19], with 2.58; and `Cc1cccc(Oc2noc(=O)n2S(=O)(=O)N(C)C)c1` [Example 20], with 2.83.

`CN(C)S(=O)(=O)n1c(Oc2cccc(C(F)(F)F)c2)noc1=O` [Example 21] returned a chromatographic logP of 3.13.

For `CN(C)S(=O)(=O)n1c(Oc2ccc(Cl)c(Cl)c2)noc1=O` [Example 22], the chromatographic logP came out at 3.37.

As to `COc1ccccc1Oc1noc(=O)n1S(=O)(=O)N(C)C` [Example 23], the chromatographic logP is 2.49. Same read-out and setting: with `CCN(CC)S(=O)(=O)n1c(Oc2cccc(OC)c2)noc1=O` [Example 28] the figure was 3.14.

Turning to `CCN(CC)S(=O)(=O)n1c(Oc2ccccc2C)noc1=O` [Example 29], the chromatographic logP came out at 3.33. The same measure, in the same setting: with `Cc1cccc(Oc2noc(=O)n2S(=O)(=O)N(C)C)c1C` [Example 30] the figure was 3.04. Same read-out and setting: with `CCN(CC)S(=O)(=O)n1c(Oc2ccc(C)cc2C)noc1=O` [Example 31] the figure was 3.72. As to `Cc1cc(C)cc(Oc2noc(=O)n2S(=O)(=O)N(C)C)c1` [Example 32], the chromatographic logP was 3.18. On the same count and under the same terms, then `CCN(CC)S(=O)(=O)n1c(Oc2cc(C)cc(C)c2)noc1=O` [Example 33], with 3.75; and `COC(=O)c1cccc(Oc2noc(=O)n2S(=O)(=O)N(C)C)c1` [Example 34], with 2.54. On the same count and under the same terms, with `CCN(CC)S(=O)(=O)n1c(Oc2cc(C)ccc2C)noc1=O` [Example 35] the figure was 3.7.

Turning to `CCN(CC)S(=O)(=O)n1c(Oc2cccc(C)c2C)noc1=O` [Example 36], the chromatographic logP worked out at 3.64. On the same count and under the same terms, then `CCN(CC)S(=O)(=O)n1c(Oc2cccc(C(=O)OC)c2)noc1=O` [Example 37], with 3.09; and `CCN(CC)S(=O)(=O)n1c(Oc2ccc(Cl)cc2)noc1=O` [Example 38], with 3.53. The same measure, in the same setting: then `CCN(CC)S(=O)(=O)n1c(Oc2ccccc2)noc1=O` [Example 39], with 3.06; and `COc1cccc(Oc2noc(=O)n2S(=O)(=O)N(C)C)c1OC` [Example 40], with 2.58. `CCN(CC)S(=O)(=O)n1c(Oc2c(C)cccc2C)noc1=O` [Example 42] showed a chromatographic logP of 3.64. `CCN(CC)S(=O)(=O)n1c(Oc2cccc(C)c2)noc1=O` [Example 43] gave a chromatographic logP of 3.42. Still for that read-out and setting: with `CCN(CC)S(=O)(=O)n1c(Oc2ccc(OC)cc2)noc1=O` [Example 44] the figure was 3.1. On the same count and under the same terms, with `CCN(CC)S(=O)(=O)n1c(Oc2ccc(C)cc2)noc1=O` [Example 45] the figure was 3.42; with `CCN(CC)S(=O)(=O)n1c(Oc2ccccc2OC)noc1=O` [Example 46], 3.05. Same read-out and setting: then `CN(C)S(=O)(=O)n1c(Oc2ccccc2F)noc1=O` [Example 47], with 2.55. Consider `CCN(CC)S(=O)(=O)n1c(Oc2cccc(C(F)(F)F)c2)noc1=O` [Example 48], for which the chromatographic logP is 3.68. `CCN(CC)S(=O)(=O)n1c(Oc2cccc(OC)c2OC)noc1=O` [Example 49]: the chromatographic logP came out at 3.15.

Molecule `CCN(CC)S(=O)(=O)n1c(Oc2ccc(F)cc2)noc1=O` [Example 50] had a chromatographic logP of 3.16. On to `CN(C)S(=O)(=O)n1c(Oc2ccc(Cl)cc2Cl)noc1=O` [Example 51], for which the chromatographic logP turned out to be 3.29. The same measure, in the same setting: with `CN(C)S(=O)(=O)n1c(Oc2ccc(OC(F)(F)F)cc2)noc1=O` [Example 52] the figure was 3.3. Same read-out and setting: then `CN(C)S(=O)(=O)n1c(Oc2ccc(Oc3ccccc3)cc2)noc1=O` [Example 53], with 3.58; and `CCN(CC)S(=O)(=O)n1c(Oc2ccc(Oc3ccccc3)cc2)noc1=O` [Example 54], with 4.19; and `CN(C)S(=O)(=O)n1c(Oc2cccc(Cl)c2)noc1=O` [Example 55], with 2.95. `CCN(CC)S(=O)(=O)n1c(Oc2cccc(Cl)c2)noc1=O` [Example 56] came in with a chromatographic logP of 3.53.

Molecule `CN(C)S(=O)(=O)n1c(Oc2ccc3c(c2)CCC3)noc1=O` [Example 57] yielded a chromatographic logP of 3.3. The same measure, in the same setting: then `CCN(CC)S(=O)(=O)n1c(Oc2ccc3c(c2)CCC3)noc1=O` [Example 58], with 3.88; and `CCN(C)S(=O)(=O)n1c(Oc2ccc(Oc3ccccc3)cc2)noc1=O` [Example 59], with 3.83. On the same count and under the same terms, then `CN(C)S(=O)(=O)n1c(Oc2ccc(-c3ccccc3)cc2)noc1=O` [Example 60], with 3.56; and `CN(C)S(=O)(=O)n1c(Oc2ccccc2-c2ccccc2)noc1=O` [Example 61], with 3.37. On the same count and under the same terms, with `CCN(CC)S(=O)(=O)n1c(Oc2ccc(OC(F)(F)F)cc2)noc1=O` [Example 62] the figure was 3.82. For the molecule `CCN(CC)S(=O)(=O)n1c(Oc2ccc(Cl)cc2Cl)noc1=O` [Example 63], the chromatographic logP is 3.88.

For the molecule `CCN(C)S(=O)(=O)n1c(Oc2cc(C)ccc2C)noc1=O` [Example 64], the chromatographic logP was 3.42.

`COc1cccc(OC)c1Oc1noc(=O)n1S(=O)(=O)N(C)C` [Example 65]: the chromatographic logP was found to be 2.51.

Another data set has as its system Phytophthora infestans. The experiment in a line: whole plant or invertebrate. The conditions noted are these: in Solanum lycopersicum, 72 h, read-out: Efficacy. Type of data set: in vivo.
`Cc1ccc(C)c(Oc2noc(=O)n2S(=O)(=O)N(C)C)c1` [Example 1, N,N-dimethyl-3-(2,5-dimethylphenoxy)-5-oxo-[1,2,4]oxadiazole-4-sulphonamide]: the pest or weed control at 100 g/ha was determined as 99%.

With `CCS(=O)(=O)n1c(Oc2cc(C)ccc2C)noc1=O` [Example 2, 3-(2,5-dimethylphenoxy)-4-ethanesulphonyl-4H-[1,2,4]oxadiazol-5-one], the pest or weed control at 100 g/ha was found to be 95%. For the molecule `Cc1ccc(Oc2noc(=O)n2S(C)(=O)=O)c(C)c1` [Example 10], the pest or weed control at 100 g/ha was 92%. Regarding `Cc1ccc(Oc2noc(=O)n2S(=O)(=O)N(C)C)c(C)c1` [Example 12], the pest or weed control at 100 g/ha stood at 97%.

With `COc1ccc(Oc2noc(=O)n2S(=O)(=O)N(C)C)cc1` [Example 13], the pest or weed control at 100 g/ha is 92%. Same read-out and setting: with `CCS(=O)(=O)n1c(Oc2ccc(C)cc2C)noc1=O` [Example 14] the figure was 97%; with `Cc1ccc(Oc2noc(=O)n2S(=O)(=O)N(C)C)cc1C` [Example 16], 99%. On the same count and under the same terms, with `CN(C)S(=O)(=O)n1c(Oc2ccc(Br)cc2)noc1=O` [Example 17] the figure was 94%; with `CN(C)S(=O)(=O)n1c(Oc2ccccc2)noc1=O` [Example 18], 95%.
